Test results from patent US20110124086A1, “Hepatitis C Virus Culture System” (The Regents of the University of California, priority 2009, published 2011).

Experiments:
Type in all cases: cell-based, Hepatitis C virus
[1] = tested on: HCV of genotype 1b (CG1b); assay: Antiviral activity of IFNα in Huh7 cells infected with FH-CG1bRbz hepatocyte-derived medium, HCV RNA by qRT-PCR; details: IFNα 100 U/ml once, 48 hrs after infection, analysed after 24 hrs
Protocol: Huh7 cells were infected with hepatocyte-derived medium. Then, after 48 hrs, cells were treated with 0 or 100 U/ml of IFNα once and analyzed for HCV RNA by qRT-PCR after 24 hrs. N.D. indicates not detectable or below the level of detection.
Huh7 human hepatoma cells were transfected with in vitro-transcribed JFH1 RNA and cultured, as previously described (Choi et al. (2004) Hepatology 39:91-9). Telomerase-reconstituted primary human hepatocytes were transfected with pEF-CG1 bRbz/Neo, pEF-CG1 bGNDRbz/Neo, or control EF-driven vector alone as described for Huh7, and cell clones that are stably transfected with these constructs were selected and maintained in G418-containing medium (Invitrogen) (Wege et al. (2004) Gastroenterology 124:432-44). For virus infection, the extracellular medium from JFH1-transfected cells and CG1b transfected cell clones was cleared by low speed centrifugation at 5,000 rpm for 10 min and concentrated ˜10 fold by ultracentrifugation at 21,000 rpm for 6.5 hrs at 4° C. The medium was also pre-treated with RNase (and also with DNase for CG1b medium) for 30 min at room temperature prior to these centrifugation steps. Then, the concentrated virus samples were used to inoculate naïve Huh7 or Huh7.5 cells (Wakita et al. (2005) Nat. Med. 11:791-6). […]
(§1) HCV RNA was quantified by quantitative reverse transcriptase polymerase chain reaction (qRT-PCR) as described. […]

[2] = tested on: JFH1 (HCV genotype 2a) in Huh7 cells; assay: Effect of PKR and Jak2 inhibitor on intracellular HCV RNA in Huh7 cells transfected with JFH1 RNA, qRT-PCR; details: C5 1 μM or Jak2 inhibitor II 10 and 50 μM, 48 or 96 hrs
Protocol: (§2) Cg1bRbz cells were treated with C5 (1 μM) or Jak2 inhibitor II (10 and 50 μM) for 48 or 96 hrs and analyzed for intracellular HCV RNAs by qRT-PCR. Huh7 cells transfected with JFH1 RNA were also used as a control. Bottom right—Huh7 cells were inoculated with virus samples prepared from control and Jak2 inhibitor II-treated later passage FH cell culture medium and analyzed for HCV RNA after 48 hrs by qRT-PCR.
(§3) Huh7 human hepatoma cells were transfected with in vitro-transcribed JFH1 RNA and cultured, as previously described (Choi et al. (2004) Hepatology 39:91-9). Telomerase-reconstituted primary human hepatocytes were transfected with pEF-CG1 bRbz/Neo, pEF-CG1 bGNDRbz/Neo, or control EF-driven vector alone as described for Huh7, and cell clones that are stably transfected with these constructs were selected and maintained in G418-containing medium (Invitrogen) (Wege et al. (2004) Gastroenterology 124:432-44). […]
as §1
(§4) It was then examined whether suppressing the hepatocyte innate immunity by inhibiting Jak/Stat pathway and/or PKR could increase the HCV titer in Applicants' FH cell clones and therefore, increase the infectivity of CG1b. HCV RNA level was analyzed in FH-CG1 bRbz cells after 48 or 96 hr incubation with C5, an inhibitor of PKR, or Jak2 Inhibitor II.

[3] = tested on: HCV genotype 1b (CG1b) in FH-CG1bRbz cells; assay: Effect of PKR and Jak2 inhibitor on intracellular HCV RNA in FH-CG1bRbz cells, qRT-PCR; details: C5 1 μM or Jak2 inhibitor II 10 and 50 μM, 48 or 96 hr incubation
Protocol: as §2
HCV RNA was quantified by quantitative reverse transcriptase polymerase chain reaction (qRT-PCR) as described. Intracellular HCV RNA levels were normalized by glyceraldehydes 3-phosphate dehydrogenase mRNA content. Standard curves were generated using in vitro-transcribed HCV RNA's. Control reactions containing no reverse transcriptase were also carried out as controls. HCV protein levels were visualized by immunofluorescence staining followed by confocal microscopy. […]
as §4

HCV genotype 1b (CG1b) = assay: HCV infectivity of medium from Jak2 inhibitor II-treated FH-CG1bRbz cells inoculated on Huh7 cells, HCV RNA by qRT-PCR; details: HCV RNA after 48 hrs, later passage FH cell culture medium
Protocol: as §2, §3, §1, §4

Compound: interferon alpha [IFNα]
- HCV titer (HCV RNA) in CG1b-infected Huh7 cells [1]: decreased HCV titer
- HCV titer (HCV RNA) in CG1b-infected Huh7 cells ([1]; listed as interferon alpha): decreased

Compound: BrC1C(Br)C(Br)C(Br)C(Br)C1Br (centres unmarked) [Jak2 Inhibitor II]
- intracellular HCV RNA in Huh7 cells transfected with JFH1 RNA [2]: an increase in the intracellular HCV RNA
- intracellular HCV RNA in FH-CG1bRbz cells [3]: intracellular HCV RNA increased
- HCV infectivity of medium from Jak2 inhibited FH-CG1bRbz cells compared to medium from control cells (HCV genotype 1b (CG1b)): increased only modestly
